Data published in the supplement of paper PMC11451515.

Experiments:
Details in all cases: 48 h
NOMO1 [1] = experiment: AUC of viability dose-response curve (% viability x log10 dose units); higher = less sensitive
Summary of the method: (§1)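 Area under the curve was integrated by trapezoidal rule from a log-logistic fit of normalised viability, with curves exceeding full viability scaled and quality-control failures removed. The fit had four parameters over log10 doses. Viability came from CellTiter-Glo One luminescence, normalised per plate to DMSO and cell-free wells, after leukemia cells adapted to each medium (500 or 1000 cells/well, 1536-well plates) were exposed to library compounds in DMSO for 48 h at 37°C. The 11 threefold doses ran from 47 μM to 0.79 nM.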

P12-Ichikawa [2] = experiment: as above
Summary of the method: as §1

SEM cells [3] = experiment: as above
Summary of the method: as §1

NOMO1 [4] = experiment: cell viability relative to DMSO control; higher = less cytotoxic
Summary of the method: (§2)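 Library compounds in DMSO were pin-dosed in an 11-point threefold series (47 μM to 0.79 nM) onto leukemia cells in 1536-well plates (5 μl). Plates held 500 cells/well of NOMO1 or SEM or 1000 cells/well of P12-Ichikawa, each adapted for at least four passages in each medium. Luminescence was read with CellTiter-Glo One after 48 h at 37°C. Viability means the per-plate percentage relative to DMSO wells, using cell-free wells as background.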

P12-Ichikawa [5] = experiment: as above
Summary of the method: as §2

SEM cells [6] = experiment: as above
Summary of the method: as §2

N[S+](=O)([O-])NCCNc1nonc1/C(=N/O)Nc1ccc(F)c(Br)c1
AUC of viability dose-response curve
Details | NOMO1 [1] | P12-Ichikawa [2] | SEM cells [3]
HPLM + 10% dialyzed FBS | 353 | 354 | 435
RPMI 5 mM glucose + 10% FBS | 373 | 389 | 375
RPMI 5 mM glucose + 10% dialyzed FBS | 411 | 401 | 414

COc1ccc(C2Sc3ccccc3N(CCN(C)C)C(=O)C2OC(C)=O)cc1 (stereo not drawn)
cell viability [%]
Details | NOMO1 [4] | P12-Ichikawa [5] | SEM cells [6]
HPLM + 10% dialyzed FBS, 0.000781 µM | 118 | 102 | 99.2
HPLM + 10% dialyzed FBS, 0.00234 µM | 114 | 115 | 111
HPLM + 10% dialyzed FBS, 0.00702 µM | 124 | 103 | 106
HPLM + 10% dialyzed FBS, 0.0211 µM | 114 | 108 | 115
HPLM + 10% dialyzed FBS, 0.0632 µM | 112 | 112 | 113
HPLM + 10% dialyzed FBS, 0.19 µM | 114 | 121 | 117
HPLM + 10% dialyzed FBS, 0.569 µM | 113 | 112 | 115
HPLM + 10% dialyzed FBS, 1.71 µM | 120 | 102 | 112
HPLM + 10% dialyzed FBS, 5.12 µM | 119 | 109 | 106
HPLM + 10% dialyzed FBS, 15.4 µM | 110 | 112 | 112
HPLM + 10% dialyzed FBS, 46.1 µM | 89.2 | 93.9 | 108
RPMI 5 mM glucose + 10% FBS, 0.000781 µM | 97.3 | 101 | 113
RPMI 5 mM glucose + 10% FBS, 0.00234 µM | 108 | 112 | 109
RPMI 5 mM glucose + 10% FBS, 0.00702 µM | 105 | 110 | 86
RPMI 5 mM glucose + 10% FBS, 0.0211 µM | 96.9 | 108 | 99.4
RPMI 5 mM glucose + 10% FBS, 0.0632 µM | 100 | 104 | 103
RPMI 5 mM glucose + 10% FBS, 0.19 µM | 108 | 112 | 111
RPMI 5 mM glucose + 10% FBS, 0.569 µM | 99 | 110 | 111
RPMI 5 mM glucose + 10% FBS, 1.71 µM | 102 | 107 | 105
RPMI 5 mM glucose + 10% FBS, 5.12 µM | 100 | 99.8 | 99.2
RPMI 5 mM glucose + 10% FBS, 15.4 µM | 95.4 | 103 | 110
RPMI 5 mM glucose + 10% FBS, 46.1 µM | 94.8 | 98.3 | 69
RPMI 5 mM glucose + 10% dialyzed FBS, 0.000781 µM | 115 | 122 | 87.2
RPMI 5 mM glucose + 10% dialyzed FBS, 0.00234 µM | 104 | 108 | 112
RPMI 5 mM glucose + 10% dialyzed FBS, 0.00702 µM | 112 | 108 | 99.6
RPMI 5 mM glucose + 10% dialyzed FBS, 0.0211 µM | 107 | 112 | 101
RPMI 5 mM glucose + 10% dialyzed FBS, 0.0632 µM | 113 | 113 | 107
RPMI 5 mM glucose + 10% dialyzed FBS, 0.19 µM | 111 | 112 | 115
RPMI 5 mM glucose + 10% dialyzed FBS, 0.569 µM | 115 | 110 | 107
RPMI 5 mM glucose + 10% dialyzed FBS, 1.71 µM | 109 | 109 | 109
RPMI 5 mM glucose + 10% dialyzed FBS, 5.12 µM | 100 | 104 | 124
RPMI 5 mM glucose + 10% dialyzed FBS, 15.4 µM | 98.7 | 105 | 95.5
RPMI 5 mM glucose + 10% dialyzed FBS, 46.1 µM | 85.2 | 92.8 | 85.8

AUC of viability dose-response curve
Details | NOMO1 [1] | P12-Ichikawa [2] | SEM cells [3]
HPLM + 10% dialyzed FBS | 469 | 467 | 473
RPMI 5 mM glucose + 10% FBS | 463 | 468 | 469
RPMI 5 mM glucose + 10% dialyzed FBS | 460 | 445 | 474

CC[C@@H]1/C=C(\C)C[C@H](C)C[C@H](OC)[C@H]2O[C@@](O)(C(=O)C(=O)N3CCCC[C@H]3C(=O)O[C@H](/C(C)=C/[C@@H]3CC[C@H](Cl)[C@H](OC)C3)[C@H](C)[C@@H](O)CC1=O)[C@H](C)C[C@@H]2OC
SEM cells [6], HPLM + 10% dialyzed FBS
Details | cell viability [%]
0.000781 µM | 115
0.00234 µM | 128
0.00702 µM | 117
0.0211 µM | 135
0.0632 µM | 122
0.19 µM | 128
0.569 µM | 117
1.71 µM | 109
5.12 µM | 109
15.4 µM | 105
46.1 µM | 104

AUC of viability dose-response curve
Details | NOMO1 [1] | P12-Ichikawa [2] | SEM cells [3]
HPLM + 10% dialyzed FBS | 457 | 467 | 451
RPMI 5 mM glucose + 10% FBS | 466 | 456 | 453
RPMI 5 mM glucose + 10% dialyzed FBS | 474 | 468 | 449

CN1c2ccccc2C(=O)N2CCc3c([nH]c4ccccc34)C21 (stereo not drawn)
cell viability [%]
Details | NOMO1 [4] | P12-Ichikawa [5] | SEM cells [6]
HPLM + 10% dialyzed FBS, 0.000781 µM | 122 | 122 | 136
HPLM + 10% dialyzed FBS, 0.00234 µM | 115 | 118 | 120
HPLM + 10% dialyzed FBS, 0.00702 µM | 118 | 112 | 114
HPLM + 10% dialyzed FBS, 0.0211 µM | 138 | 123 | 127
HPLM + 10% dialyzed FBS, 0.0632 µM | 130 | 119 | 125
HPLM + 10% dialyzed FBS, 0.19 µM | 135 | 120 | 120
HPLM + 10% dialyzed FBS, 0.569 µM | 151 | 116 | 122
HPLM + 10% dialyzed FBS, 1.71 µM | 118 | 115 | 131
HPLM + 10% dialyzed FBS, 5.12 µM | 107 | 111 | 125
HPLM + 10% dialyzed FBS, 15.4 µM | 105 | 116 | 117
HPLM + 10% dialyzed FBS, 46.1 µM | 102 | 117 | 101
RPMI 5 mM glucose + 10% FBS, 0.000781 µM | 116 | 125 | –
RPMI 5 mM glucose + 10% FBS, 0.00234 µM | 108 | 139 | –
RPMI 5 mM glucose + 10% FBS, 0.00702 µM | 122 | 113 | –
RPMI 5 mM glucose + 10% FBS, 0.0211 µM | 116 | 119 | –
RPMI 5 mM glucose + 10% FBS, 0.0632 µM | 112 | 121 | –
RPMI 5 mM glucose + 10% FBS, 0.19 µM | 111 | 118 | –
RPMI 5 mM glucose + 10% FBS, 0.569 µM | 123 | 122 | –
RPMI 5 mM glucose + 10% FBS, 1.71 µM | 115 | 119 | –
RPMI 5 mM glucose + 10% FBS, 5.12 µM | 102 | 117 | –
RPMI 5 mM glucose + 10% FBS, 15.4 µM | 107 | 118 | –
RPMI 5 mM glucose + 10% FBS, 46.1 µM | 106 | 111 | –
RPMI 5 mM glucose + 10% dialyzed FBS, 0.000781 µM | – | 127 | 111
RPMI 5 mM glucose + 10% dialyzed FBS, 0.00234 µM | – | 122 | 105
RPMI 5 mM glucose + 10% dialyzed FBS, 0.00702 µM | – | 114 | 120
RPMI 5 mM glucose + 10% dialyzed FBS, 0.0211 µM | – | 125 | 114
RPMI 5 mM glucose + 10% dialyzed FBS, 0.0632 µM | – | 129 | 104
RPMI 5 mM glucose + 10% dialyzed FBS, 0.19 µM | – | 116 | 112
RPMI 5 mM glucose + 10% dialyzed FBS, 0.569 µM | – | 111 | 125
RPMI 5 mM glucose + 10% dialyzed FBS, 1.71 µM | – | 114 | 109
RPMI 5 mM glucose + 10% dialyzed FBS, 5.12 µM | – | 118 | 102
RPMI 5 mM glucose + 10% dialyzed FBS, 15.4 µM | – | 115 | 89.1
RPMI 5 mM glucose + 10% dialyzed FBS, 46.1 µM | – | 107 | 94.7

AUC of viability dose-response curve
Details | NOMO1 [1] | P12-Ichikawa [2] | SEM cells [3]
HPLM + 10% dialyzed FBS | 445 | 470 | 453
RPMI 5 mM glucose + 10% FBS | 466 | 454 | 438
RPMI 5 mM glucose + 10% dialyzed FBS | 434 | 451 | 459
